# Reference: publication PMC9821969, “Metabolomic Strategy to Characterize the Profile of Secondary Metabolites in Aspergillus aculeatus DL1011 Regulated by Chemical Epigenetic Agents” (Molecules, 2022)
# Target: T1, SHP1 (Homo sapiens, UniProt P29350)
# T1 construct: gene PTPN6; domain protein
# T1 sequence (P29350 244-515 limits assumed): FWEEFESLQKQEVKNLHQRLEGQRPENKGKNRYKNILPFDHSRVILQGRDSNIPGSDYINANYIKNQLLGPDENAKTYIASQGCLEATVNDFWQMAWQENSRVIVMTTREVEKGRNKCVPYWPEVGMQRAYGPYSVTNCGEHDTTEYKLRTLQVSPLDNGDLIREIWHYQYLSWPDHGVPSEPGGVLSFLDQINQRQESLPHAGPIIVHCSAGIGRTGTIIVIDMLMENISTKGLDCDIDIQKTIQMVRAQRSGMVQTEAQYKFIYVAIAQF
# Assay: pNPP phosphatase assay, absorbance at […] nm
# Type: biochemical
structure (smiles),measurement,value
"CO[C@@]1(C)[C@H](O)C(=O)C(C)=C(O)[C@@H]1Oc1c(C)c(O)cc(C)c1C(=O)O [S10, Roseopurpurin A]",IC50,16 µM
